How the values were obtained:
Tubulin = Tubulin (Bos taurus, UniProt Q6B856+Q862L2+Q862F3); test: Inhibition of bovine brain tubulin polymerization measured every 1 min for 60 mins by turbidimetry based microplate reader analysis
COLO 205 = test: Antiproliferative activity against human COLO205 cells assessed as reduction in cell viability by MTT assay; format: functional, cell-based
HCT-116 = test: Antiproliferative activity against human HCT116 cells assessed as reduction in cell viability by MTT assay; format: functional, cell-based

## COc1ccc(-c2[nH]nc3c2-c2cc(OC)c(OC)c(OC)c2CC3)cc1
Tubulin; read-out: IC50
  IC50: 6.6 µM
COLO 205
  IC50: 0.037 µM

## COc1ccc2c(c1)CCc1nn(-c3ccccc3)c(-c3cc(OC)c(OC)c(OC)c3)c1-2
Tubulin
  IC50: > 10 µM
COLO 205
  IC50: > 10 µM
HCT-116
  IC50: 5.24 µM

## COc1ccc2c(c1)CCc1nn(CCO)c(-c3cc(OC)c(OC)c(OC)c3)c1-2
Tubulin
  IC50: > 10 µM
COLO 205
  IC50: 0.56 µM
HCT-116
  IC50: 1.2 µM

## COc1ccc2c(c1)CCc1nn(C)c(-c3cc(OC)c(OC)c(OC)c3)c1-2
Tubulin
  IC50: 1.5 µM
COLO 205
  IC50: 0.019 µM
HCT-116
  IC50: 0.001 µM

## CCOC(=O)Cn1nc2c(c1-c1cc(OC)c(OC)c(OC)c1)-c1ccc(OC)cc1CC2
Tubulin
  IC50: > 10 µM
COLO 205
  IC50: 8.24 µM
HCT-116
  IC50: > 10 µM

## COc1ccc(/C=C\c2cc(OC)c(OC)c(OC)c2)cc1O [COMBRETASTATIN A4]
COLO 205
  IC50: 0.001 µM
HCT-116
  IC50: 0.001 µM

Source: ChEMBL document CHEMBL4346757, “Synthesis and biological evaluation of 7-methoxy-1-(3,4,5-trimethoxyphenyl)-4,5-dihydro-2H-benzo[e]indazoles as new colchicine site inhibitors” (Bioorg Med Chem Lett, 2019)
